Data set [1] has as its system Jurkat cells. Kind of data set: Mixed lymphocyte reaction, 3H-thymidine incorporation, Jurkat stimulators. The class given is cell-based. The settings on record: Jurkat cells alone. As to the method:
(§1) EL4-GD2^+ cells and control Jurkat cells were treated with 25 μg/ml Mitomycin (Sigma) for 1 hr to arrest their proliferation. After the cells were washed three times with media to remove Mitomycin, they were plated in 96-well plates at 2×10^5 cells/well. Single cell suspensions of splenocytes were obtained from twice immunized (as above) and from vehicle injected control mice. Cells were separated following the protocol of the EASYSEP™ magnet (Stem Cell Tech). […] The T cells were plated at a ratio of 10:1 with Mitomycin-treated EL4 or Jurkat cells. As controls, cultures of T cells alone (no stimulating tumor cells) or T cells treated with ConcanavilinA were used. After 5 days of culture, 0.1μCi/well ^3H-thymidine (Sigma-Aldrich) was added. DNA-incorporated ^3H-thymidine was counted by liquid scintillation, and data are reported as average cpm±sd.
In general terms: Dividing cells build labelled thymidine or BrdU into new DNA.

For data set [2], the system named is EL4-GD2+ cells. Kind of data set: Mixed lymphocyte reaction, 3H-thymidine incorporation, EL4-GD2+ stimulators. The settings on record: EL4-GD2+ cells alone. Type of data set: cell-based, mouse. The procedure:
as §1

The nature of data set [3]: Water solubility. The class given is physicochemical. The procedure:
The carbohydrates were synthesized as described (Gilbert et al., 2002, J Biol Chem, 277: 327), by modification of the process for phenylthio-GD2 (Tong et al., 2010, Cehm Biol, 17: 183) in which the thio-phenyl analog originally reported was substituted with an p-aminophenyl-(β-D-lactopyranoside (AP-Lac), from Toronto Research Chemicals), for subsequent conjugation to the dendrimer (see below). AP-GD2 was water soluble (>20 mg/ml), and was purified to >99% purity by size-exclusion (Superdex 30 16 mm×85 cm column, GE Health Care). The measured molecular weight of AP-GD2 was 1218 g/mol and corresponded to expected values. Structures were verified by 1D and 2D NMR spectroscopy and mass spectrometry (EI-MS) (see FIGS. 2A and B).

Take `CO[C@@]12[C@H](COC(N)=O)C3=C(C(=O)C(C)=C(N)C3=O)N1C[C@@H]1N[C@@H]12` [Mitomycin]: the “3H-thymidine incorporation of treated stimulator cells” value stood at 107±5 cpm in data set [1] and 188±4 cpm in data set [2].
By solubility is commonly meant the dissolved amount per volume that the medium holds. Read a low solubility as a poorly soluble substance. For `CC(=O)NC1C(OC2C(CO)OC(OC3C(CO)OC(Oc4ccc(N)cc4)C(O)C3O)C(O)C2OC2(C(=O)O)CC(O)C(NC(C)=O)C([C@H](O)C(CO)OC3(C(=O)O)CC(O)C(NC(C)=O)C([C@H](O)[C@H](O)CO)O3)O2)OC(CO)C(O)C1O` (stereo partly drawn) [AP-GD2], in data set [3], the solubility is over 20 mg/mL.

Source of the values: patent US10363305B2, “Anti-ganglioside compound for targeting cancer and generating antibodies” (REALIST PHARMA, INC., priority 2013, dated 2019).
